Test results as given in patent US20100130579A1, “CANCER THERAPY” (Georgetown University, priority 2006, published 2010).

Columns and labels:
Type in all cases: cell-based, human
[1] = system: RASSF1A; experiment: RT-PCR of RASSF1A expression in cancer cells
Method: (§1) FIGS. 1A-1D. Mahanine induces RASSF1A in prostate and other cancer cells. FIG. 1A: Microarray analyses of PC3 cells treated with ([…] (+) or vehicle (−) for 2 days, RNA was extracted and microarray analysis was performed. FIG. 1B: RT-PCR data showing the expression of RASSF1A and GAPDH in untreated normal prostate epithelial cells (PrEC) and human prostate cancer cells (PC3). FIG. 1C: PC3 (left panel) and LNCaP (right panel) cells were treated with 0, 1, 2 and 3 μg/ml mahanine for 3 days. RNA was extracted, and RT-PCR assays were performed to detect RASSF1A and GAPDH expression. Representative photograph from an experiment that was repeated thrice. Quantitative estimations of relative levels of RASSF1A mRNAs (lower panels) were determined by densitometric measurements of RT-PCR gels from three independent experiments after normalization with GAPDH. […]
Genes of interest were amplified using 500 ng of total RNA reverse-transcribed to cDNA using a Superscript II kit (Invitrogen) with random hexamers. […] After amplification, PCR products were separated on 1.5% agarose gels and visualized by ethidium bromide fluorescence using the Fuji LAS-1000 Imager. […] Band intensities were quantified by using ImageJ software (NIH, Bethesda, Md.).

[2] = system: RASSF1 gene; experiment: Gene array (microarray) analysis of RASSF1 expression; conditions: PC3 cells, 2 μg/ml mahanine, 2 days, compared to vehicle-treated control
Method: as §1
(§2) Microarray analysis: Total RNA was isolated from […] cells treated with or without mahanine using TRIZOL reagent (Invitrogen Corp., Carlsbad, Calif.). […] RNA was evaluated by electrophoresis before continuing with probe synthesis and hybridization. […] Following repetitive washing in saline-sodium citrate/SDS, hybridized cDNA probes were detected by chemiluminescence. […] Bound biotinylated cDNA probe was detected with alkaline phosphatase-conjugated streptavidin and CDP-Star chemiluminescent substrate (SuperArray). […]

[3] = system: cyclin D1; experiment: Gene array (microarray) analysis of cyclin D1 expression; conditions: PC3 cells, 2 μg/ml, 2 days
Method: FIGS. 2A-2D. Mahanine down-regulates cyclin D1 expression in prostate and other cancer cells. FIG. 2A: Microarray analyses showing PC3 cells treated with (2 μg/ml) mahanine (+) or vehicle (−) for 2 days and RNA was extracted and microarray analysis was performed. FIG. 2B and FIG. 2C: PC3 (left panel) and LNCaP (right panel) cells were treated with 0, 1, 2 and 3 μg/ml mahanine for 3 days. RNA was extracted, and RT-PCR assays were performed to detect cyclin D1 and GAPDH mRNAs. Representative photograph from an experiment that was repeated thrice. Quantitative estimations of relative levels of cyclin D1 mRNAs (lower panel) were determined by densitometric measurements of RT-PCR gels from three independent experiments after normalization with GAPDH. […]
as §2

CC(C)=CCC[C@@]1(C)C=Cc2c(c(C)cc3c2[nH]c2cc(O)ccc23)O1 [mahanine]
induction of RASSF1A expression (RT-PCR) ([1]; A431, A549, ASPC-1, HT-29, MCF7 and SKOV-3 cells, 2 and 3 μg/ml, 2 days): induced RASSF1A expression
induction of RASSF1A gene expression (RT-PCR) ([1]; PC3 cells, 1, 2 and 3 μg/ml, 3 days, dose-dependent): 20-80 folds
RASSF1 gene expression (gene array) [2]: dramatically induced
cyclin D1 expression (gene array) [3]: down-regulated the expression of cyclin D1
